What was measured:
Assay type in all cases: in vivo, human
[1] = Pooled safety data (AEs, liver function tests) of Studies 301, 302 and 303
[2] = BHV3000-301 Phase 3 trial: safety and tolerability; settings: Study 301
Method: Methods • In a double-blind, randomized, placebo-controlled, multicenter study (Study 301, NCT03235479) adults ≥[…] of age with at least a 1-year history of ICHD 3-beta migraine were eligible to participate. Following a 3- to 28-day screening period, subjects were randomized to receive rimegepant 75 mg or matching placebo and instructed to treat a single migraine attack with 1 dose of the blinded study drug (rimegepant or placebo) when headache pain reached moderate or severe intensity. The coprimary endpoints were pain freedom at 2 hours postdose and freedom from the most bothersome symptom (MBS) at 2 hours postdose. Safety assessments included adverse events (AEs), ECGs, vital signs, physical measurements, and routine laboratory tests, including assessment of liver function. Unless stated otherwise, values presented are mean±SD.

[3] = BHV3000-201 open label long-term safety study, interim analysis
Method: Clinical Trial—BHV3000-201: Open Label Safety Study in Acute Treatment of Migraine (ClinicalTrials.gov Identifier: NCT 03266588)
A phase 2/3 clinical study is conducted with about 2000 participants, as follows.
The purpose of this study is to evaluate safety and tolerability of BHV3000 (rimegepant).
Study Design • Study Type: Interventional (Clinical Trial) • Estimated Enrollment: 2000 participants • Intervention Model: Single Group Assignment • Masking: None (Open Label) • Primary Purpose: Treatment • Official Title: A Multicenter, Open Label Long-Term Safety Study of BHV3000 in the Acute Treatment of Migraine • Actual Study Start Date: Aug. 30, 2017 • Estimated Primary Completion Date: July 2019 • Estimated Study Completion Date: July 2019
1. To assess the safety and tolerability of rimegepant (BHV-3000) by measuring the frequency and severity of adverse events and discontinuations due to adverse events [Time Frame: 52 weeks]Number of subjects with treatment-emergent adverse events as assessed through laboratory tests, ECGs, physical exam findings (safety and tolerability)
1. ALT or AST >3×ULN with total bilirubin >2×ULN [Time Frame: 52 weeks]elevated liver function tests
2. hepatic related adverse events and hepatic related adverse events that lead to discontinuation [Time Frame: 52 weeks]adverse events related to liver
Patients were allowed to treat migraine attacks of all severities (mild to severe) up to once daily for a full year. The initial results for hepatic safety and tolerability of rimegepant 75 mg in study participants is based upon review of both adverse events and regularly scheduled liver function tests. Interim hepatic data were reviewed by an external and independent panel of liver experts. […] In the aggregate, it was noted that compared to migraine trials with drugs other than rimegepant, there was a very low incidence of overall elevations of liver function test abnormalities in rimegepant treated patients (1.0% incidence of serum ALT or AST >3x ULN). Subjects will continue to participate in Study 201 with additional data analyses to be submitted in the NDA and required 120-day safety updates.

[4] = pooled 301, 302, 303, n = 1,771

N[C@@H]1c2cccnc2[C@H](OC(=O)N2CCC(n3c(=O)[nH]c4ncccc43)CC2)CC[C@H]1c1cccc(F)c1F [Rimegepant, [(55,65,9R)-5-amino-6-(2,3-difluorophenyl)-6,7,8,9-tetrahydro-5H-cyclohepta[b]pyridin-9-yl]4-(2-oxo-3H-imidazo[4,5-b]pyridin-1-yl)piperidine-1-carboxylate]
bilirubin elevations > 2x ULN ([1]; across Studies 301, 302 and 303): no patients
ALT or AST >5x ULN, number of patients ([1]; pooled 301, 302, 303, AST elevation deemed not drug-related): 1
ALT or AST >3x ULN, number of patients [1, 4]: 2
ALT or AST >3x ULN, percent [1, 4]: (0.1%)
ALT or AST >5x ULN, percent [1, 4]: (0.06%)
ALT or AST >10x ULN, number of patients [1, 4]: 0
ALT or AST >20x ULN, number of patients [1, 4]: 0
ALT or AST >ULN, number of patients [1, 4]: 48
ALT or AST >ULN, percent [1, 4]: (2.7%)
SAE related to the study drug [2]: No SAE
bilirubin elevations >2 times ULN [2]: No bilirubin elevations
transaminase level >5 times ULN [2]: no subject
safety and tolerability profile ([2]; 75 mg oral tablet): favorable tolerability and safety
AE dizziness ([2]; 4/546 subjects): 0.7%
AE nausea ([2]; 5/546 subjects): 0.9%
Serum ALT or AST levels greater than ULN ([2]; 11/546 subjects): 2.0%
Serious AEs (SAEs) ([2]; n=2, both not dosed before onset): 0.4%
safety and tolerability of long-term dosing ([3]; Study 201 interim analysis): consistent with the profile observed in phase 1- 3 studies
incidence of serum ALT or AST >3x ULN ([3]; Study 201 interim, 75 mg up to once daily): 1.0%
liver safety signal ([3]; Study 201 interim, incl. near-daily dosing (>=15 doses/month)): no liver safety signal detected
liver cases assessed as probably related to study drug ([3]; Study 201 interim, independent liver panel): no liver cases
